Measured values as given in article PMC12168616, “Machine Learning‐Assisted Prediction and Generation of Antimicrobial Peptides” (Small Science, 2025).
≈ marks a conversion by molar mass, not a printed value. Where two headings read alike, the source gives them in different places. Ends that are not written are not given here. Peptide text beside a SMILES is read from it.

What was measured:
[1] = system: A. Baumannii AB5075; assay type: cell-based, Acinetobacter baumannii
From the text: (§1) To evaluate the susceptibility of the different peptide sequences against clinical isolates of various bacterial pathogens, we used the minimum inhibitory concentration (MIC) assay. The MIC measures the efficacy of peptides in inhibiting bacterial growth. The specific MIC values of various peptides against Enterococcus […] ATCC19433, Staphylococcus aureus ATCC25923, Klebsiella pneumoniae ATCC43816, Acinetobacter baumannii AB5075, Pseudomonas aeruginosa PAO1, and Enterobacter species ATCC13048 were determined by measuring optical density at 600 nm (OD600 nm). […] The growth inhibition curves were used to estimate the MIC values.
(§2) Bacteria: The MIC was the lowest concentration of a drug, which inhibited the visible growth of a bacteria and could be determined by reading the absorption at 600 nm (OD600 nm) using a spectrophotometer. The peptides were subjected to antibacterial testing against gram‐positive and gram‐negative pathogens. All the ESKAPE pathogens (E. faecalis ATCC19433, S. aureus ATCC25923, K. pneumoniae ATCC43816, A. baumannii AB5075, P. aeruginosa PAO1, and E. aerogenes ATCC13048) were inoculated from nutrient agar plates to obtain a bacterial suspension by incubating the colony of bacteria in a flask containing 10 mL of Mueller Hinton broth II (MHB) at 37 °C for 24 h with gentle shaking (75 rpm). The bacterial suspensions were then diluted in MHB to 1 × 10^6 colony‐forming units (CFU) of bacteria mL^−1. Next, using serial dilutions in 96‐well plates, different concentrations of each peptide from 1.5–400 μM were prepared. 100 μL of peptide solutions at final concentration ranging between 0.75–200 μM were then added to a 96‐well plate containing 100 μL of diluted bacterial suspension. After 18–24 h incubation at 37 °C, the turbidity of the samples was observed, and the optical density of bacteria was measured using OD600 nm. All assays were performed in duplicates. The MICs were calculated as ≥90% inhibition of bacteria growth compared to the positive control wells.

[2] = system: E. Faecalis ATCC19433; assay type: cell-based, Enterococcus faecalis
From the text: as §1, §2

[3] = system: S. Aureus ATCC25923; assay type: cell-based, Staphylococcus aureus
From the text: as §1, §2

[4] = system: K. Pneumoniae ATCC43816; assay type: cell-based, Klebsiella pneumoniae
From the text: as §1, §2

[5] = system: P. Aeruginosa PAO1; assay type: cell-based, Pseudomonas aeruginosa
From the text: as §1, §2

[6] = system: E. Aerogenes ATCC13048; assay type: cell-based, Enterobacter aerogenes
From the text: as §1, §2

[7] = system: ESKAPE pathogens; assay: MIC assay, bacteria, strain of the six not assignable or not specified; assay type: cell-based; settings: one of the six ESKAPE strains, left to right order; MHB II, 18–24 h, 37 °C, OD600 nm, ≥90% inhibition, duplicates
From the text: as §1, §2

[8] = broth microdilution, Mueller Hinton broth II, peptide 0.75–200 μM, 18–24 h at 37 °C, OD600 nm, MIC = ≥90% inhibition, duplicates

Row | Compound | MIC A. Baumannii AB5075 ([1]; AB5075) [µM] | MIC E. Faecalis ATCC19433 ([2]; ATCC19433) [µM] | MIC S. Aureus ATCC25923 ([3]; ATCC25923) [µM] | MIC K. Pneumoniae ATCC43816 ([4]; ATCC43816) [µM] | MIC P. Aeruginosa PAO1 ([5]; PAO1) [µM] | MIC E. Aerogenes ATCC13048 ([6]; ATCC13048) [µM] | other results
1 | CC[C@H](C)[C@H](NC(=O)[C@H](CCC(N)=O)NC(=O)[C@@H]1CCCN1C(=O)[C@H](Cc1ccccc1)NC(=O)[C@H](CCCCN)NC(=O)[C@H](CCCCN)NC(=O)CNC(=O)[C@H](Cc1ccccc1)NC(=O)[C@@H](N)Cc1c[nH]c2ccccc12)C(=O)N[C@@H](C)C(=O)N[C@@H](CS)C(=O)N[C@@H](CCCCN)C(=O)N[C@@H](CCCNC(=N)N)C(=O)N[C@@H](CS)C(=O)N[C@@H](CS)C(N)=O [MLWH 43] (H-WFGKKFPQIACKRCC-NH2) | 25 (≈ 45.4 µg/mL) | – | – | – | – | – | –
2 | AIVKKGWIKILAWVF-NH2 [MLWH 36] | – | 100 | 6 | 100 | 200 | 100 | –
3 | ALFLGGIWKKLPKAI-NH2 [MLWH02] | 100 | – | – | – | 100 | – | –
4 | ALKAKLKFPGKFLFK-NH2 [MLWH 25] | 100 | – | – | 100 | 200 | 200 | –
5 | AVLIAKLFHKLNKIK-NH2 [MLWH 15] | 100 | 200 | – | 200 | 200 | – | –
6 | AWLKFKKKFGLFAKI-NH2 [MLWH11] | 12.5 | 25 | 100 | 12.5 | 25 | 12.5 | –
7 | FLPLIILKFIGKLLP-NH2 [MLWH 19] | 200 | 1.5 | 3 | – | – | – | –
8 | FNKGKKFFFKFIKWV [MLWH73, peptide generated using algorithm, list 2] | – | – | – | – | – | – | MIC E. Faecalis ATCC19433 [2, 8]: 25 µM; MIC S. Aureus ATCC25923 [3, 8]: 25 µM; MIC K. Pneumoniae ATCC43816 [4, 8]: 12.5 µM; MIC A. Baumannii AB5075 [1, 8]: 12.5 µM; MIC P. Aeruginosa PAO1 [5, 8]: 25 µM; MIC E. Aerogenes ATCC13048 [6, 8]: 25 µM
9 | FVTITLKNFAKKKVG-NH2 [MLWH 28] | 200 | – | – | 200 | – | 200 | –
10 | GGAFFKLTQKIIKKA-NH2 [MLWH07] | 50 | – | – | 200 | 200 | – | –
11 | GIKIIGIKVATFLKA-NH2 [MLWH03] | – | – | – | 200 | – | – | –
12 | GKIFGKLFLALIKMW-NH2 [MLWH06] | 25 | 12.5 | 25 | – | 200 | 200 | –
13 | GLLTTGKKKLLGIIA-NH2 [MLWH 26] | 200 | – | – | – | – | – | –
14 | GLWKIKLAFGKMFAK-NH2 [MLWH05] | 12.5 | 25 | 100 | 25 | 25 | 25 | –
15 | GPLMGAFIKKLLPKF-NH2 [MLWH 48] | 25 | 200 | – | 100 | 100 | 200 | –
16 | IKVILKLVTNKGNGI-NH2 [MLWH 21] | 50 | 200 | – | 200 | – | 200 | –
17 | KFITKFVKGLGLGTL-NH2 [MLWH 23] | 50 | – | – | 200 | 200 | – | –

Row | Compound | MIC A. Baumannii AB5075 ([1]; AB5075) [µM] | MIC E. Faecalis ATCC19433 ([2]; ATCC19433) [µM] | MIC S. Aureus ATCC25923 ([3]; ATCC25923) [µM] | MIC K. Pneumoniae ATCC43816 ([4]; ATCC43816) [µM] | MIC P. Aeruginosa PAO1 ([5]; PAO1) [µM] | MIC E. Aerogenes ATCC13048 ([6]; ATCC13048) [µM] | other results
18 | KGFAKMFRLLKKLAR-NH2 [MLWH 32] | 3 | 12.5 | 6 | 12.5 | 25 | 25 | –
19 | KHVFAFLGGKLVKLK-NH2 [MLWH 35] | 50 | – | – | 200 | – | – | –
20 | KLKGLIFAWFKGIIA-NH2 [MLWH 45] | 25 | 25 | 100 | 100 | 200 | 25 | –
21 | LGVKPVFKFFKFFGK [MLWH51, peptide generated using algorithm, list 2] | – | – | – | – | – | – | MIC E. Faecalis ATCC19433 [2, 8]: 100 µM; MIC S. Aureus ATCC25923 [3, 8]: 200 µM; MIC K. Pneumoniae ATCC43816 [4, 8]: 100 µM; MIC A. Baumannii AB5075 [1, 8]: 12.5 µM; MIC P. Aeruginosa PAO1 [5, 8]: 50 µM; MIC E. Aerogenes ATCC13048 [6, 8]: 200 µM
22 | LLGFTAFIKGQIKTA-NH2 [MLWH09] | 200 | 50 | 50 | 100 | 200 | 100 | –
23 | NFKIIKKVGIKLKGA-NH2 [MLWH 33] | 100 | – | – | – | – | – | –
24 | PKWHKNKMFKFKRKF [MLWH98, peptide generated using algorithm, list 2] | – | – | – | – | – | – | MIC, Table S7, 4th value printed in the line (strain column cannot be told) [7]: 200 µM
25 | PSKYAKIAIKFHKQI [MLWH61, peptide generated using algorithm, list 2] | – | – | – | – | – | – | MIC, Table S7, 4th value printed in the line (strain column cannot be told) [7]: 50 µM
26 | QGWIKIILPHIRYIK [MLWH57, peptide generated using algorithm, list 2] | – | – | – | – | – | – | MIC, Table S7, 4th value printed in the line (strain column cannot be told) [7]: 25 µM
27 | RMFFKFKKKFKKWGQ [MLWH74, peptide generated using algorithm, list 2] | – | – | – | – | – | – | MIC E. Faecalis ATCC19433 [2, 8]: 200 µM; MIC S. Aureus ATCC25923 [3, 8]: 50 µM; MIC K. Pneumoniae ATCC43816 [4, 8]: 25 µM; MIC A. Baumannii AB5075 [1, 8]: 25 µM; MIC P. Aeruginosa PAO1 [5, 8]: 200 µM; MIC E. Aerogenes ATCC13048 [6, 8]: 100 µM
28 | TKFGQKVIKLIAQFL-NH2 [MLWH 24] | 3 | 6 | 12.5 | 6 | 25 | 6 | –
29 | TLVKAVAHIAKLLKF-NH2 [MLWH 22] | 12.5 | 100 | 100 | 50 | 200 | 200 | –
30 | VHKAFRKGSGAAILW-NH2 [MLWH 27] | 200 | – | – | 200 | – | – | –
31 | VIYSIGLRIFNKIRP [MLWH99, peptide generated using algorithm, list 2] | – | – | – | – | – | – | MIC, Table S7, 4th value printed in the line (strain column cannot be told) [7]: 200 µM
32 | VQKLLKFKLKITAKA-NH2 [MLWH08] | 100 | 100 | – | 50 | 200 | 50 | –
33 | WFKAIAIGLGKFIAK-NH2 [MLWH 14] | 25 | 25 | 25 | 25 | – | 25 | –
34 | YFHLKKSFGKKLKRV-NH2 [MLWH 41] | 100 | – | – | – | – | – | –
